Read-outs that look alike come from different tables or passages of the source.
Tests used:
VSV-G pseudovirus = assay: microbe, parasite or virus in culture; assay type: cell-based; settings: read-out: IC50 VSV-G pseudovirus
[1] = system: HIV-1CH58TF infected primary CD4+ T cells; assay: ADCC FACS-based assay with HIV+ plasma, HIV-1CH58TF infected cells; assay type: cell-based, human; settings: for Susceptibility of HIV-1CH58TF infected cells to ADCC mediated by HIV+ plasma (in words): 50 μM compound, plasma 1:1000; for % ADCC (CH58): Table 1, approximate values, HIV+ plasma 1/1,000, compound 50 μM
[2] = system: HIV-1AD8 infected primary CD4+ T cells; assay: ADCC FACS-based assay with HIV+ plasma, HIV-1AD8 infected cells; assay type: cell-based, human; settings: 50 μM compound; plasma 1:1000
[3] = system: HIV-1JRFL infected primary CD4+ T cells; assay: Anti-CoRBS 17b mAb binding to infected cells (flow cytometry), HIV-1JRFL; assay type: cell-based, human; settings: 50 μM compound; p24+ cells
Method: (§1) FIG. 4. Anti-CoRBS Ab binding. Anti-CoRBS Ab-17b binding to (A) HIV-1CH58TF, (B) HIV-1JRFL (C) or HIV-1AD8 infected primary CD4+ T cells was done in the presence of 50 μM of the indicated CD4mcs or the same volume of vehicle (DMSO). The median fluorescence intensity (MFI) of 17b binding is reported for the productively-infected cell (p24+) population. Data shown are the mean±SD of at least three independent experiments. Statistical significance was evaluated using an un-paired t test (*, p<0.05; **, p<0.01; ***, p<0.001; ****, p<0.0001; ns, not significant).
The ability of the compounds to expose the co-receptor binding site (CoRBS) were tested by measuring binding of the anti-CoRBS 17b mAb to infected cells. Briefly, primary CD4+ T cells were infected with HIV-1CH58TF, HIV-1JRFL or HIV-1AD8. Two days later, infected cells were co-incubated with 50 μM (+)-BNM-III-170, (S)-MCG-IV-210, TFH-070-A6, TFH-I-116-D1, ZXC-I-090, ZXC-I-092, DL-I-101 (ZXC-I-257), and DL-I-102 (ZXC-I-258) or the same volume of DMSO, and the 17b interaction was measured by flow cytometry after intracellular anti-p24 to identify the infected cell population. […] Defined by the sensitivity to anti-body-mediated neutralization (tier-1, 2 and 3), Tier-2 viruses (HIV-1JRFL and HIV-1AD8) are representative of biologically relevant circulating HIV-1 strains which are moderately neutralized by neutralizing antibodies. Weak neutralizing antibodies, or first generation CD4mc, prevent the infection of viruses from tier-1 but not those from tier-2 or tier-3. […] A similar phenotype was observed when using HIV-1AD8 infected cells (FIG. 4C).
The anti-CoRBS 17b mAb was used alone or in combination with different com-pounds for cell-surface staining. Plasma from different HIV-infected donors were collected, heat-inactivated and conserved. Alexa Fluor 647 conjugated Goat anti-human antibodies (Invitrogen, Waltham, MA, USA) were used as secondary Abs.
Cell-surface staining was performed. Primary CD4 T cells were isolated from healthy donors and infected with HIV-1CH58TF, HIV-1JRFL or HIV-1AD8. Binding of HIV-1-infected cells by plasma (1:1000 dilution) or 17b mAb (5 μg/mL) in the presence or absence of 50 μM compounds was performed 48 h after infection. Cells were then incubated at 37° C. for 1 h followed by adding anti-human Alexa Fluor-647 (Invitrogen) secondary Abs for 20 min. Cells were then stained intracellularly for HIV-1 p24, using the Cytofix/Cytoperm Fixation/Permeabilization Kit (BD Biosciences, Mississauga, ON, Canada) and the fluorescent anti-p24 mAb (PE-conjugated anti-p24, clone KC57; Beckman Coulter/Immunotech). The percentage of infected cells (p24+ cells) was determined by gating the live cell population on the basis of the Aqua-Vivid viability dye staining. Samples were analyzed on an LSRII cytometer (BD Biosciences), and data analysis was performed using FlowJo vX.0.7 (Tree Star, Ashland, OR, USA).

[4] = system: HIV-1AD8 infected primary CD4+ T cells; assay: Cell-surface staining with HIV+ plasma, HIV-1AD8 infected cells; settings: 50 μM compound; plasma 1:1000
HIV-1CH58TF = assay: Viral neutralization in TZM-bl cells (luciferase), HIV-1CH58TF; assay type: cell-based
HIV-1JRFL = assay: Viral neutralization in TZM-bl cells (luciferase), HIV-1JRFL; assay type: cell-based
HIV-1AD8 = assay: Viral neutralization in TZM-bl cells (luciferase), HIV-1AD8; assay type: cell-based; settings: read-out: IC50 HIV-1AD8
[5] = system: HIV-1JRFL infected primary CD4+ T cells; assay: ADCC FACS-based assay with HIV+ plasma, HIV-1JRFL infected cells; assay type: cell-based, human; settings: for % ADCC (JR-FL): Table 1, approximate values
[6] = system: HIV-1JRFL infected primary CD4+ T cells; assay: Cell-surface staining with HIV+ plasma, HIV-1JRFL infected cells; assay type: cell-based, human; settings: 50 μM compound; plasma 1:1000
[7] = system: HIV-1CH58TF infected primary CD4+ T cells; assay: Cell-surface staining with HIV+ plasma, HIV-1CH58TF infected cells; assay type: cell-based, human; settings: 50 μM compound; plasma 1:1000
[8] = system: HIV-1CH58TF infected primary CD4+ T cells; assay: Anti-CoRBS 17b mAb binding to infected cells (flow cytometry), HIV-1CH58TF; assay type: cell-based, human; settings: 50 μM compound; p24+ cells
Method: as §1
The ability of the compounds to expose the co-receptor binding site (CoRBS) were tested by measuring binding of the anti-CoRBS 17b mAb to infected cells. […] Two days later, infected cells were co-incubated with 50 μM (+)-BNM-III-170, (S)-MCG-IV-210, TFH-070-A6, TFH-I-116-D1, ZXC-I-090, ZXC-I-092, DL-I-101 (ZXC-I-257), and DL-I-102 (ZXC-I-258) or the same volume of DMSO, and the 17b interaction was measured by flow cytometry after intracellular anti-p24 to identify the infected cell population. […]
Cell-surface staining was performed. […] The percentage of infected cells (p24+ cells) was determined by gating the live cell population on the basis of the Aqua-Vivid viability dye staining. Samples were analyzed on an LSRII cytometer (BD Biosciences), and data analysis was performed using FlowJo vX.0.7 (Tree Star, Ashland, OR, USA).

[9] = Human immunodeficiency virus 1, TZM-bl, read-out: IC50 (CH58)
[10] = Human immunodeficiency virus 1, TZM-bl, read-out: IC50 (JR-FL)
[11] = Human immunodeficiency virus 1, TZM-bl
[12] = Table 2, average ± SD of at least three independent experiments, TZM-bl cells, read-out: IC50 HIV-1CH58TF
[13] = Human immunodeficiency virus 1, TZM-bl, read-out: IC50 HIV-1JRFL

Row | Compound | IC50 (VSV-G pseudovirus; Pseudovirus, TZM-bl) [µM] | Susceptibility of HIV-1CH58TF infected cells to ADCC mediated by HIV+ plasma (in words) [1] | Exposure of the co-receptor binding site (17b mAb binding), HIV-1JRFL infected cells [3] | HIV+ plasma binding to HIV-1AD8 infected cells [4] | IC50 (HIV-1CH58TF; [9]) [µM] | IC50 (HIV-1JRFL; [10]) [µM] | % ADCC (CH58) [1] [%] | % ADCC (JR-FL) [5] [%] | IC50 (HIV-1JRFL; [13]) [µM] | also measured
1 | NCC(=O)N1CCN(C(=O)N2C[C@H](CO)C[C@H](C(=O)Nc3ccc(Cl)c(F)c3)C2)CC1 (racemic) [DL-I-101, (3S,5R)-N-(4-chloro-3-fluorophenyl)-1-(4-glycylpiperazine-1-carbonyl)-5-(hydroxymethyl)piperidine-3-carboxamide] | > 100 | also the case | successfully exposed the CoRBS | did | – | – | – | – | – | ADCC against HIV-1AD8 infected cells (in words) [2]: translated into ADCC
2 | O=C(O)CN1CCN(C(=O)N2C[C@H](CO)C[C@H](C(=O)Nc3ccc(Cl)c(F)c3)C2)CC1 (racemic) [DL-I-102, 2-(4-((3S,5R)-3-((4-chloro-3-fluorophenyl)carbamoyl)-5-(hydroxymethyl)piperidine-1-carbonyl)piperazin-1-yl)acetic acid] | > 100 | also the case | successfully exposed the CoRBS | – | – | – | – | – | – | –
3 | C[C@@H]1CN(C(=O)N2CCC[C@H](C(=O)Nc3ccc(Cl)c(F)c3)C2)C[C@H](C)N1C (stereo in doubt) [TFH-I-116-D1] | > 100 | also the case | successfully exposed the CoRBS | did | < 1 | 20 | 5 | 3 | – | IC50 (HIV-1CH58TF; Human immunodeficiency virus 1, TZM-bl, read-out: IC50 HIV-1CH58TF): 0.065 ± 0.01 µM; IC50 (HIV-1JRFL; Human immunodeficiency virus 1, TZM-bl, read-out: IC50, neutralization of HIV-1JRFL (text, unit printed M)): 43.8 µM; IC50 (HIV-1AD8; [11]): 4.8 ± 1.7 µM; ADCC against HIV-1JRFL infected cells compared to (S)-MCG-IV-210 (in words) ([5]; 50 μM compound, plasma 1:1000): not translated into enhanced ADCC; ADCC against HIV-1AD8 infected cells (in words) [2]: translated into ADCC; Recognition of HIV-1JRFL infected cells by antibodies from PLWH (HIV+ plasma) [6]: recognized infected cells
4 | CN1CCN(C(=O)N2C[C@H](CN)C[C@H](C(=O)Nc3ccc(Cl)c(F)c3)C2)CC1 (stereo in doubt) [ZXC-I-090] | > 100 | also the case | – | – | ~50 | 18 | ~3 | ~2 | – | –
5 | C[C@@H]1CN(C(=O)N2C[C@H](CN)C[C@H](C(=O)Nc3ccc(Cl)c(F)c3)C2)C[C@H](C)N1C (stereo in doubt) [ZXC-I-092] | > 100 | also the case | successfully exposed the CoRBS | – | ~50 | 28 | ~3 | ~2 | 54.2 ± 22.8 | IC50 (HIV-1CH58TF; [12]): 0.75 ± 0.12 µM
6 | CNCc1ccc2c(c1)C[C@H](CN=C(N)N)[C@H]2NC(=O)C(=O)Nc1ccc(Cl)c(F)c1.O=C(O)C(F)(F)F.O=C(O)C(F)(F)F [BNM-III-170, reference compound] | – | enhanced | – | – | – | – | – | – | – | IC50 (HIV-1CH58TF; [12]): 0.033 ± 0.01 µM; IC50 (HIV-1JRFL; TZM-bl neutralization assay, read-out: IC50, neutralization of HIV-1JRFL): 13.5 µM; IC50 (HIV-1AD8; Table 2, average ± SD of at least three independent experiments, TZM-bl cells): 3.75 ± 1.3 µM; IC50 (VSV-G pseudovirus): > 100 µM; Recognition of HIV-1CH58TF infected cells by HIV+ plasma [7]: enhanced the recognition
7 | NCCNC(=O)N1CCC[C@H](C(=O)Nc2ccc(Cl)c(F)c2)C1 [MCG-IV-210, reference compound] | > 100 | enhanced | – | did not promote HIV+ plasma binding | – | – | – | – | > 100 | Inhibition of viral infection by HIV-1JRFL (in words) (HIV-1JRFL; TZM-bl neutralization assay): unable to inhibit viral infection; IC50 (HIV-1AD8; [11]): > 100 µM; Exposure of the co-receptor binding site (17b mAb binding), HIV-1CH58 infected cells [8]: exposed the CoRBS; Recognition of HIV-1CH58TF infected cells by HIV+ plasma [7]: enhanced the recognition
8 | CN1CCN(C(=O)N2CCC[C@H](C(=O)Nc3ccc(Cl)c(F)c3)C2)CC1 [TFH-I-070-A6, (S)-4-(3-((4-chloro-3-fluorophenyl)carbamoyl)piperidine-1-carbonyl)-1-methylpiperazin-1-ium, 2,2,2-trifluoro-acetate] | > 100 | also the case | successfully exposed the CoRBS | did | 30 | 80 | 5 | 3 | 67.2 ± 30 | –
